Reference: US20070281903A1, “Morinda Citrifolia-Based Formulation 5-LOX And 15-LOX” (priority 2006, published 2007)
Values joined by “and” are separate entries in the source; they are usually repeats but may differ in a detail not shown here. Equal entries are not always repeated.

Target: T1, 5-Lipoxygenase (5-LOX) (Homo sapiens, UniProt P09917)
T1 construct: Human peripheral blood mononuclear leukocytes (PBML) were isolated through a Ficoll-Paque density gradient; endogenous in cells; host or cells: human peripheral blood mononuclear leukocytes (PBML)
T1 sequence (P09917 1-674): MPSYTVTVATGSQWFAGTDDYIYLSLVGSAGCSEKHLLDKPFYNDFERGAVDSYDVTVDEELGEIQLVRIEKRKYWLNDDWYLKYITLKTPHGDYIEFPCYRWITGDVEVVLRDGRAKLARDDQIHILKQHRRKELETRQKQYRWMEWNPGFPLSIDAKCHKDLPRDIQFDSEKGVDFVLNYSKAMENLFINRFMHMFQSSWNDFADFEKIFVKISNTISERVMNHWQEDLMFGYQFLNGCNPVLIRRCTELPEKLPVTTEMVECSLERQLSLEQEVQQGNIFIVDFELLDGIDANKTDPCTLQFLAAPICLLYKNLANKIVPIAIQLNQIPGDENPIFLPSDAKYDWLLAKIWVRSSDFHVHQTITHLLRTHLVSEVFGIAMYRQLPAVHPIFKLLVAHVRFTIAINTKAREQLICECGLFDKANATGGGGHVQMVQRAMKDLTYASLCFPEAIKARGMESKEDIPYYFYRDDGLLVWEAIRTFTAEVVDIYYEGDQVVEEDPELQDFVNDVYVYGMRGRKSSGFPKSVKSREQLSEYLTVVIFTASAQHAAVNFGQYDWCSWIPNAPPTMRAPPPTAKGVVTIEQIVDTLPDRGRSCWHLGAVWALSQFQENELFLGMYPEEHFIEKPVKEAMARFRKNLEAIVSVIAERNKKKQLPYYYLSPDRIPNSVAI
Experiment: 5-Lipoxygenase inhibition assay, LTB4 by EIA in A23187-stimulated human PBML
Type: cell-based
Details: for Avg. % Inh.: average of duplicates; for % Inh. / Product (pg/well): single replicate
Description: Methods employed in this example were adapted from the scientific literature to maximize reliability and reproducibility. […] 110-13 (2000).
In this study, the 5-LOX source was human peripheral blood mononuclear cells (PBMNC) and the substrate was arachidonic acid having a general reaction of: arachidonic acid →5-LOX→5-HPETE→LTB4. Human peripheral blood mononuclear leukocytes (PBML) were isolated through a Ficoll-Paque density gradient. The inhibiting agent was processed Morinda citrifolia puree juice concentrate. Morinda citrifolia was pre-incubated with PBML (5×10^6 cell/ml) in HBSS buffer pH 7.4 at 37° C. for 15 minutes. […] Following neutralization with NaOH and centrifugation, the supernatant LTB4 is measured using an EIA kit.
The supernatant sample was utilized in same assay and protocols as outlined in Example One above, wherein the brown substance obtained was substituted for Morinda citrifolia puree juice.

CC(Cc1ccc(O)c(O)c1)C(C)Cc1ccc(O)c(O)c1 (stereo not drawn) [NDGA, nordihydroguaretic acid]
Avg. % Inh. (Conc. 0.03 uM): 6% | % Inh. (Conc. 0.03 uM): 3.6% and 9.2% | Product (pg/well) (Conc. 0.03 uM): 3608.3 pg/well and 3403.4 pg/well | Avg. % Inh. (Conc. 0.1 uM): 36% | % Inh. (Conc. 0.1 uM): 36.1% | Product (pg/well) (Conc. 0.1 uM): 2433.3 pg/well | Avg. % Inh. (Conc. 0.3 uM): 73% | % Inh. (Conc. 0.3 uM): 73.5% and 72.8% | Product (pg/well) (Conc. 0.3 uM): 1083.1 pg/well and 1106.1 pg/well | Avg. % Inh. (Conc. 1 uM): 97% | % Inh. (Conc. 1 uM): 97.0% and 97.4% | Product (pg/well) (Conc. 1 uM): 233.7 pg/well and 217.9 pg/well | Avg. % Inh. (Conc. 3 uM): 100% | % Inh. (Conc. 3 uM): 99.7% and 100.8% | Product (pg/well) (Conc. 3 uM): 134.9 pg/well and 94.3 pg/well
